By IC50 is commonly meant the concentration that inhibits the measured activity by half.

Format in all cases: cell-based
For one assay, the target named is T1, SGLT1 protein (Mus musculus, UniProt Q9QXI6).
T1 sequence (Q9QXI6 whole entry): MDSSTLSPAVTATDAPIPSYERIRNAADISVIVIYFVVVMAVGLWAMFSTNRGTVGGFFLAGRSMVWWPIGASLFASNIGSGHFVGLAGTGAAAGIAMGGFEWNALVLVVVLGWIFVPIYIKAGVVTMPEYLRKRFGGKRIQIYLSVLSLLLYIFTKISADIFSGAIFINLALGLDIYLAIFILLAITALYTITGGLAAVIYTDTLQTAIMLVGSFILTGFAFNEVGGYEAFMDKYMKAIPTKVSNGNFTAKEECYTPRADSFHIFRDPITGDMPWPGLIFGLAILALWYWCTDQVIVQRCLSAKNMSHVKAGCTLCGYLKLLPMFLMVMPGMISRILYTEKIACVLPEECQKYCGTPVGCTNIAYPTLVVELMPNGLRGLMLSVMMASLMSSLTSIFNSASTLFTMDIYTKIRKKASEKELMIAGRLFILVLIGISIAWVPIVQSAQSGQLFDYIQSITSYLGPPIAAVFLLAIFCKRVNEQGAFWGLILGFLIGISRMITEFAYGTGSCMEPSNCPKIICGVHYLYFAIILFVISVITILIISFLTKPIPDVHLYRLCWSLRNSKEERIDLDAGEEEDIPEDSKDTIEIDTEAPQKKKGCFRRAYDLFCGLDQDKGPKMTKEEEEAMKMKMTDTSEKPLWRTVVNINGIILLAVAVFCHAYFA
In words: Inhibition of mouse SGLT1 expressed in CHO cells assessed as inhibition of [14C]-alpha-methyl-D-glucopyranoside transport after 60 mins by scintillation counting.

The target of assay [1] is T2, Sodium/glucose cotransporter 1 (Rattus norvegicus, UniProt P53790).
T2 sequence (P53790 whole entry): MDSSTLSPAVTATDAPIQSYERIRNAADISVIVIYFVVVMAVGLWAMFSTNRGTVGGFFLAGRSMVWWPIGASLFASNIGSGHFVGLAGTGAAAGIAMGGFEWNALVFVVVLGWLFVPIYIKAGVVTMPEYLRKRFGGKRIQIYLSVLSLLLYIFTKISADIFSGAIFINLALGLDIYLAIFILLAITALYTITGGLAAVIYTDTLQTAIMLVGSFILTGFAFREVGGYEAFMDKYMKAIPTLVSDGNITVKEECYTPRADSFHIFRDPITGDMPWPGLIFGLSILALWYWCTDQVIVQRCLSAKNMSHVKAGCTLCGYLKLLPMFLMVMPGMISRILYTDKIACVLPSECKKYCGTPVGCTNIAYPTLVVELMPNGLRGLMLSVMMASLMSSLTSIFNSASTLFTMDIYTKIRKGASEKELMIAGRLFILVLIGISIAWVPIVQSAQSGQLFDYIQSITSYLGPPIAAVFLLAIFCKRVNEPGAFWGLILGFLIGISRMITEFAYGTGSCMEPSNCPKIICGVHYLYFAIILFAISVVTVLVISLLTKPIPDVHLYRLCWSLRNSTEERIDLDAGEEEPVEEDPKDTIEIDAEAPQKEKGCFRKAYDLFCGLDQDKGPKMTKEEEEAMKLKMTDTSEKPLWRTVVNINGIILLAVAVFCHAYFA
Nature of the assay: Inhibition of rat SGLT1 expressed in CHO cells assessed as inhibition of [14C]-alpha-methyl-D-glucopyranoside transport after 60 mins by scintillation counting.

For assay [2], the target named is T3, Sodium/glucose cotransporter 1 (Homo sapiens, UniProt P13866).
T3 sequence (P13866 whole entry): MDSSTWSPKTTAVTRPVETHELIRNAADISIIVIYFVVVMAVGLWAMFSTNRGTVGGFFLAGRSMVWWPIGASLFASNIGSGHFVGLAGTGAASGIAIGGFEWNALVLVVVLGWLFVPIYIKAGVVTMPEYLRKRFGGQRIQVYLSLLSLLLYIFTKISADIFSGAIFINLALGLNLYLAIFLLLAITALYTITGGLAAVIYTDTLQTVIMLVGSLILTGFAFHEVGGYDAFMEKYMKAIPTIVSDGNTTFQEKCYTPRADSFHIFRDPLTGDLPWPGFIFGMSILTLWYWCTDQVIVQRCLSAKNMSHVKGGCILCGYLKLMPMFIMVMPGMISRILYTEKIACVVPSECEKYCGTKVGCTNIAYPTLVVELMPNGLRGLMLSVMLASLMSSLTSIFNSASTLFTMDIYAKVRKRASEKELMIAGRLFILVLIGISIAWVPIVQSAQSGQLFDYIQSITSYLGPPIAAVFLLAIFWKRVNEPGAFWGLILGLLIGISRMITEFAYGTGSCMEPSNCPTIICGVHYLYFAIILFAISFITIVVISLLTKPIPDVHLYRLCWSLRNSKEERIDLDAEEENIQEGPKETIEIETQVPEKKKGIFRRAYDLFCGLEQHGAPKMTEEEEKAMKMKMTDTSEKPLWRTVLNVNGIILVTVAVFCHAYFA
In words: Inhibition of human SGLT1 expressed in CHO cells assessed as inhibition of [14C]-alpha-methyl-D-glucopyranoside transport after 60 mins by scintillation counting.

Assay [3] deals with T4, Sodium/glucose cotransporter 2 (Mus musculus, UniProt Q923I7).
T4 sequence (Q923I7 whole entry): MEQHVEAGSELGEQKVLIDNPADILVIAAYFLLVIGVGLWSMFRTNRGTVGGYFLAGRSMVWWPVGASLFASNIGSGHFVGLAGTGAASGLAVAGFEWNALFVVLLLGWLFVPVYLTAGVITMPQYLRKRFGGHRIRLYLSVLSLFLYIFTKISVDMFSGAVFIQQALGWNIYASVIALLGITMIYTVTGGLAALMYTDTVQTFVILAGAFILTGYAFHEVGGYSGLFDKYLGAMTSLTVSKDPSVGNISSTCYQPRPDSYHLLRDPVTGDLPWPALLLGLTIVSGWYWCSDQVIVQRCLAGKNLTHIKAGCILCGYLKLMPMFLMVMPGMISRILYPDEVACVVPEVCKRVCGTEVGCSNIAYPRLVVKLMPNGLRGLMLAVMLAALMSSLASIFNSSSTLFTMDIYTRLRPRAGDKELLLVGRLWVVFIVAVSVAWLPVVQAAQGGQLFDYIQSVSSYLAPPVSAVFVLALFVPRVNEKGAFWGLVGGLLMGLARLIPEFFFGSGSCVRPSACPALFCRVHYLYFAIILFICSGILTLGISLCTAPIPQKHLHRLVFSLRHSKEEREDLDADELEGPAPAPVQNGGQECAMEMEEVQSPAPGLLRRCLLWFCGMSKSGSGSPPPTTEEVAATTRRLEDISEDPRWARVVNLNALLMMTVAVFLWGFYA
Nature of the assay: Inhibition of mouse SGLT2 expressed in CHO cells assessed as inhibition of [14C]-alpha-methyl-D-glucopyranoside transport after 60 mins by scintillation counting.

Consider `Cn1c(CN2C(=O)CSc3ccc(C(F)(F)F)cc32)nnc1SCc1ccc(Cl)cc1`, for which the IC50 on SGLT1 protein was found to be 3 µM; in assay [1], 9 µM; in assay [2], 7 µM; in assay [3] it was 1.2 µM.

(Values after ChEMBL document CHEMBL1759842, “Discovery of non-glucoside SGLT2 inhibitors” (Bioorg Med Chem Lett, 2011).)
